Consider 1 molecule from patent US20240408081A1, “NOVEL SYNERGISTIC COMBINATIONS AND METHODS OF USE THEREOF FOR TREATING CANCERS” (UNIVERSITE DE BORDEAUX, priority 2021, published 2024).

Like-named read-outs stand apart in the source and are kept apart here.

The test system of one series is BXdmg1 primary cells. The series can be described thus: Proliferation assay in primary DMG cells BXdmg1. It counts as cell-based, human. As to the method:
Cell growth was measured with the In vitro Toxicology Assay kit (Sulforhodamine B, Sigma Aldrich, Saint Quentin Fallavier, France) according to manufacturer's instructions. Cells were plated at a density of 2000 cells per well in 96-well plates in triplicates. Absorbance was measured at 565 nm using the CLARIOstar multiplate reader (BMG Labtech, Champigny-sur-Marne, France) at indicated time points.
A DMG biopsy was received in the laboratory and dissociated using GentleMACs cell separator (Miltenyi Biotech, Paris, France) within 24h using MACSBrain Tumor Dissociation Kit (Miltenyi Biotech, Paris, France) and the standard GentleMACs brain tissue separation program. Cells yielded were cultivated in Amniomax C100SUP plus Amniomax C100 basal medium (Gibco, ThermoFisher, Illkirch Cedex, France). Molecular and cellular analysis of the biopsy were detailed in FIG. 7 (see Rahal, F., C. Capdevielle, B. Rousseau, J. Izotte, J. W. Dupuy, D. Cappellen, G. Chotard, M. Menard, J. Charpentier, V. Jecko, C. Caumont, E. Gimbert, C. F. Grosset and M. Hagedorn (2022). “An EZH2 blocker sensitizes histone mutated diffuse midline glioma to cholesterol metabolism inhibitors through an off-target effect.” Neurooncol Adv 4 (1): vdac018).

Series [1] concerns HMGCS, HMGCR, LDLR, NPC1 and SQLE. The series can be described thus: RT-qPCR and Western blot of lipid and cholesterol synthesis genes in DIPG cells. It counts as cell-based, human. The conditions noted are these: GSK-126 at IC50 of each cell line. The method, then:
Cell lysates were prepared by scraping cells using RIPA buffer (Sigma Aldrich) plus proteinase inhibitors (Sigma Aldrich) and centrifuged at 13000 g for 15 min at 4° C. Protein concentrations were measured using Pierce™ BCATM Protein Assays (ThermoFisher) and equal amounts of cell extracts were loaded for western blot analysis in 4-15% precasted polyacrylamide gel (Bio-Rad). Proteins were blotted on a nitrocellulose membrane (Transblot® Turbo midi-size, Bio Rad), blocked with the Odyssey blocking buffer (LI-COR Biosciences, ScienceTec, Les Ulis, France) or with BSA diluted in Tris-buffered saline with 0.1% Tween 20 (TBST) and probed with primary antibodies overnight at 4° C. […] Quantification was performed using ImageJ (National Institutes of Health, Bethesda, Maryland, USA).
Total RNA was isolated from cell lines with the TRI Reagent (Sigma) following manufacturer's instructions. For quantification of messenger RNA (mRNA) expression, total RNA was retrotranscribed using the Maxima Reverse Transcriptase (Thermo Scientific). […]
For orientation: In qPCR the cycle at which signal appears reflects the starting amount.

The subject of series [2] is SU-DIPG-IVi-Luc cells implanted in the brainstem. The series can be described thus: Orthotopic SU-DIPG-IVi-Luc brainstem glioma model in NSG mice. The series is classed as in vivo, NOD/LtSz-scid IL2R gamma (NSG) mice.
Method: For the mouse model, the immortalized SU-DIPG-IV line was used. SU-DIPG-IVi was transduced by a luciferase vector (Luc) with a MOI of 10. Two days after birth, 10^5 SU-DIPG-IVi-Luc cells in 2 μl were injected directly into the brainstem through the neck to a depth of 3 mm using a 2 μl NeuroSyringe (Hamilton Neuros, Dutscher, Bruxelles, Belgium) under anesthesia with 2% isoflurane and 50% oxygen enrichment. […] Tumor growth was evaluated non-invasively with anesthetized mice on a Biospace imager (Biospace Lab, Nesles la Vallée, France) 1-2 days after each treatment.
Prior to treatments, mice were micro-tattooed (Aramis kit, BiosebLab, France). Animals were weighed and then receive an i.p. injection in the lower right quadrant following IACUC recommendations. A 1 ml tuberculin syringe and a 26-gauge needle were used with an injection volume of 200 μl for a 30 g mouse (3 mg/ml), adjusted to actual weight each week. Treatment was done 3 times a week, starting at day 8. Tumor growth was evaluated non-invasively on a Biospace imager (Biospace Lab, Nesles la Vallée, France). The entire procedure was carried out on a heating mat at 37° C. The animals were shaved and anesthetized in sterile condition (under PSM-2) in boxes dedicated to imaging. […]
The subject of another series is HepG2 cells. The experiment in a line: Cell viability assay (CellTiter 96 AQueous One / MTS) in HepG2. The series is classed as cell-based, human. The method, then:
(§1) For 2D culture, a total of 2,000 cells/well for Huh6 and 3,000 cells/well for HepG2 were seeded in 96-well microtiter plates. Cell growth was measured at 24 h, 48h, 72h or 96h after genetic manipulation and at 48h or 72h after drug treatment using the in vitro MTS assay Kit or Sulforhodamine B (SRB, Absorbance at 565 nm) assay (Sigma) following manufacturer's instructions. For 3D culture, spheroids were formed as described above and microplates were incubated in an IncuCyte® S3 live cell analysis system and scanned every 8 hours. For genetic manipulation, the lentiviral transductions or the gene depletions were done before the plating. For drug treatments, depending on the experiment and the drug, spheroids were treated at day 4 or 5 for 48h or 72h. Cell viability assay in spheroids was done using 1 μM calcein AM (BioLegend) and 2 μM ethidium homodimer 1 (Sigma) for 30 minutes at 37° C. Spheroids were imaged using an IncuCyte® S3 live cell analysis system. For all cell viability assays, drugs were used at half maximal inhibitory concentration (IC50).

The subject of series [3] is Huh6 and HepG2 hepatoblastoma cells. The series can be described thus: Growth and viability of hepatoblastoma cells (Huh6 and HepG2), 2D and 3D spheroid. It counts as cell-based, human. As to the method:
as §1

In a further series the test system is H3K27me3, HMGCR. The experiment in a line: Western blots of H3K27me3 and HMGCR in hepatoblastoma cells. The series is classed as cell-based, human. The conditions noted are these: Huh6 and HepG2. As to the method: Cells were lysed and total proteins were extracted 48 hours after treatment or 72 hours after genetic manipulation using a mixture of RIPA buffer (Sigma), protease inhibitors and phosphatase inhibitor cocktail (Roche). After protein quantification with BCA Protein Assays (ThermoFisher), 40 μg of total proteins were loaded in 4-15% pre-casted gels (Bio-Rad) for migration. Then, proteins were transferred onto a nitrocellulose membrane (Transblot® Turbo midi-size, Bio Rad). The membranes were blocked with 5% BSA or Odyssey blocking buffer (LI-COR Biosciences) and detected with the corresponding antibodies (Table 2). The revelation was performed by chemiluminescence using Fusion FX (Vilber Lourmat) and quantification was done using ImageJ software (National Institutes of Health, Bethesda, Maryland, USA).

In the next series the test system is Huh6 and HepG2 cells. The series can be described thus: Lipid droplets assay in hepatoblastoma cells. The series is classed as cell-based, human. As to the method: The cells were plated in 6-well plate at a density of 250,000 cells per well. […] After 48 hours of treatment, the cells were fixed in 4% PFA for 15 minutes then stained with the red oil for 15 minutes at room temperature. Finally, cells were washed several times and scanned using InCellis microscope (Bertin Technologies, France).

For series [4], the system named is patients with relapsed/refractory solid tumors and hematologic malignancies. The conditions noted are these: cited from earlier work.

Broadly, the IC50 is the concentration that gives 50% inhibition. A lower IC50 goes with higher potency. With `CC[C@H](C)n1cc(C)c2c(C(=O)NCc3c(C)cc(C)[nH]c3=O)cc(-c3ccc(N4CCNCC4)nc3)cc21` [GSK-126, 1-[(2S)-butan-2-yl]-N-[(4,6-dimethyl-2-oxo-1H-pyridin-3-yl)methyl]-3-methyl-6-[6-(1-piperazinyl)-3-pyridinyl]-4-indolecarboxamide], the IC50 is 10.4 µM in the series with BXdmg1 primary cells; approximately 10 µM in the series on BXdmg1 primary cells (Homo sapiens); 8 µM in the series with HepG2 cells (Homo sapiens); 6 to 8 µM in series [3] (Homo sapiens, hepatoblastoma cells, 48 h). Also, in series [1], the “expression of HMGCS, HMGCR, LDLR, NPC1 and SQLE genes, and HMGCR and SQLE proteins” value is reported as “induced”. Besides, the “tumor growth (bioluminescence)” value is recorded as “No significant differences” in series [2] (GSK-126 6 mg/kg, Atorvastatin 10 mg/kg, after four treatments) and “significant growth reduction” in series [2] (i.p. dose of 10 mg/kg, 3-times a week). The IC25 dose in the series with HepG2 cells stood at 4 µM. Also, the “sensitivity of Huh6 and HepG2 cells in presence of Simvastatin or Atorvastatin” value in series [3] (72 h, 4 μM Simvastatin or 8 μM Atorvastatin) is “significantly increased (at least twice)”. For the same molecule, the “trimethylation of histone H3 Lysine 27” value with H3K27me3, HMGCR (GSK-126 at IC50) is reported as “reduced”. Also, the “expression of HMGCR” value in the series with H3K27me3, HMGCR is listed as “triggered”. In addition, the synthesis of lipids entry in the series with Huh6 and HepG2 cells is given as “triggered”. Besides, the clinical activity result in series [4] (at the MTD) is recorded as “inadequate clinical activity”. In series [4] (human, in vivo), the half-life entry was “relatively short”. The “maximum tolerated dose (MTD)” value in series [4] (twice weekly intravenous, 28 days (3 weeks on/1 week off)) is 2,400 mg.
